Results on one compound are retold here after article PMC7287031 (Pharmacology Research & Perspectives, 2020).

The nature of data set [1]: In vitro plasma protein binding (ultrafiltration), dog. In kind it is in vitro ADME. The following applies: 100 and 1000 ng/mL. As for the experimental part:
Stock solutions were spiked into plasma to achieve the intended concentrations. After incubation for 1 hour at 37°C under constant gentle agitation, the spiked plasma samples (n = 3) were centrifuged (2000 g, 10 min, 37°C) in pre‐warmed Centrifree devices. Total radioactivity was determined in the ultrafiltrate (Cu, concentration of unbound compound) and in the sample introduced into the reservoir before ultrafiltration (Cp). The unbound (fu) and the bound (fb) fraction in plasma were calculated as follows: fu (%) = Cu/Cp × 100; fb (%) = 100‐Fu (%).

Data set [2] in a line: Placental transfer (fetal vs maternal plasma), rabbit embryofetal development study. In kind it is in vivo. The following applies: female, fetal plasma (relative to maternal plasma), rabbits, 3 hours post dose, Day 20 postcoitum, read-out: Fetal plasma concentration as % of maternal plasma concentration.
The nature of data set [3]: Rat milk excretion study. In kind it is in vivo. The following applies: female, milk (relative to plasma), lactating rats, read-out: milk exposure (AUCinf) relative to plasma exposure. As for the experimental part:
Metabolite profiling was conducted on plasma, urine, bile, and feces samples in the rat and dog ADME studies, and further metabolite profiling on plasma and milk was conducted in a dedicated rat milk excretion study.
Plasma samples obtained from these studies were extracted with equal volumes of acetonitrile. Additional extractions of the protein pellet with acetonitrile and/or acetone were conducted as needed to maximize radioactivity recovery. Feces samples were initially extracted with two to four volumes of acetonitrile. Additional extractions of the pellet following centrifugation and removal of supernatant were conducted with acetonitrile and/or acetone as needed to maximize radioactivity recovery. Urine and bile samples were analyzed directly following centrifugation. Radioactivity recoveries following the centrifugation step were measured by LSC. Milk samples were extracted with two volumes of acetonitrile, following centrifugation and removal of supernatant, the pellets were re‐suspended in 100 µL of water and re‐extracted with 200 µL acetonitrile.

The nature of data set [4]: Kinetic analysis of ribociclib metabolite formation in HLM and enzyme contribution. The format is in vitro ADME, human. The conditions noted are these: both sexes, human, pooled human liver microsomes, pH 7.4; HLM, sum of metabolite formation; read-out: CLint, Total of all pathways. The method, then:
(§1) In vitro incubations were carried out in 100‐mM potassium phosphate buffer (pH 7.4) and 5‐mM MgCl2 with a total volume of 200 µL. Substrate and either human liver microsomes (HLM, BD Biosciences, mixed gender pool of n = 50) or recombinant human enzymes (BD Biosciences) were added and pre‐incubated for 3 minutes at 37°C. The reaction was started by addition of a fresh solution of NADPH (1 mmol/L final concentration). The samples were incubated at 37°C with agitation of 500 rpm. For incubations with CYP2A6, CYP2C9, CYP2C18, and CYP4A11, the phosphate buffer was replaced by TRIS buffer (100 mmol/L, pH 7.4) and for flavin‐containing monooxygenases (FMOs), a glycine buffer (50 mM, pH 9.5) was used.
(§2) The enzymatic reaction was stopped and the protein was precipitated by addition of an equal volume of methanol. […] The supernatant was withdrawn. Aliquots were analyzed by LSC and the supernatant was diluted with water to obtain a final solution containing less than 20% of the organic solvent. For samples of low substrate concentration, supernatants were evaporated to dryness under nitrogen, then re‐suspended in water containing less than 20% of methanol. Samples were analyzed by HPLC combined with radiodetection.
(§3) Km and Vmax parameters were calculated by using SigmaPlot Version 8.0, Enzyme Kinetics module Version 1.1 software (SPSS Science Inc, Chicago, IL, USA). The intrinsic clearance was calculated by the equation: CLint = Vmax/Km.
(§4) The intrinsic clearances (Vmax/Km) of each pathway were determined by enzyme kinetics.
(In general: Liver microsomes are vesicles of endoplasmic reticulum, rich in cytochrome P450 enzymes.)

Data set [5] relates to CYP3A4. The data set is described as above. The format is in vitro ADME, human. The conditions noted are these: both sexes, human, pooled human liver microsomes, pH 7.4; HLM; read-out: CLint attributed to CYP3A4. As for the experimental part:
as §1, §2, §3, §4

Data set [6] concerns FMO3. The description is as above. The format is in vitro ADME, human. The conditions noted are these: both sexes, human, pooled human liver microsomes, pH 7.4; HLM; read-out: CLint attributed to FMO3. As for the experimental part:
as §1, §2, §3, §4

Data set [7] can be described thus: Human ADME study: total radioactivity PK in blood and plasma (AMS). In kind it is in vivo. The following applies: single oral 600 mg [14C] ribociclib, N=6. As for the experimental part: Subjects continued to fast for 4 hours after drug administration. […] Urine was collected from 0‐6, 6‐12, and 12‐24 h post dose, then over 24‐hour intervals until 504 hours post dose. Feces was collected over 24‐h intervals until 504 hours post dose, during which time the volunteers were confined to the clinic. Vomitus was also scheduled to be collected for 12 hours post dosing. However, no volunteers vomited during the study. […] Electrostatics Corporation 1.5SDH Compact AMS System (Middleton) in the bioanalytical laboratory of Accium BioSciences, Seattle, WA, USA. A known aliquot of each blood and plasma specimen was transferred to a prebaked quartz tube. […] An AMS batch consisted of unknown specimens and chemical blank(s) to monitor for any in‐process contamination. The samples were then dried using vacuum centrifugation and submitted to graphitization. Graphitization consisted of combustion of samples followed by reduction to graphite according to published methods. ^12 Briefly, approximately 200‐mg copper oxide was added to each combustion tube containing the dried sample residue. The combustion tubes were flame‐sealed under vacuum and combusted at approximately 900°C to form carbon dioxide (CO2). Combusted samples were then attached to a disposable transfer system connected to a septa‐sealed vial. […]

Data set [8] can be described thus: Integrated estimation of ribociclib elimination pathways in humans. The arrangement: species or system human.
The mark [9] stands for this setting: human estimate based on rat ADME data.

The fraction unbound is the share of the substance not bound to proteins or other matrix. A high value points to weak binding.

`CN(C)C(=O)c1cc2cnc(Nc3ccc(N4CCNCC4)cn3)nc2n1C1CCCC1` [ribociclib, Ribociclib] had a fraction unbound at 1 h in data set [1] of 0.34 ± 0.01. In data set [2], the Kp at 3 h worked out at 0.06. Also, in data set [3], the Kp came out at 3.6. Besides, the figures for the microsomal CLint in data set [4], in data set [5] and in data set [6] were 31.5 µL/min/mg, 23.3 µL/min/mg and 8.19 µL/min/mg, respectively. The “tlast of total radioactivity, median” value in data set [7] (human blood) and in data set [7] (human plasma) was 504 h in each case. The “biliary elimination, share of total” value in data set [8] (setting [9]) is recorded as 1%. Besides, in data set [8] (setting [9]), the “elimination by intestinal excretion/secretion, share of total” value is recorded as 8%. Also, the “elimination by hepatic metabolism, share of total” value in data set [8] (human, integrated estimate) is “approx. 84%”. Further, in data set [8] (human, integrated estimate), the “elimination by renal excretion, share of total” value was 7%.
